Like-named read-outs stand apart in the source and are kept apart here. Some results are limits rather than exact numbers.

One experiment deals with human JAK3 (Homo sapiens (Human), UniProt P52333). Kind of experiment: JAK3 kinase domain Alphascreen enzyme screening. Format: biochemical. The following applies: read-out: JAK3_ IC50_nM. On the procedure: (§1) For screening purposes, compounds (in 100% DMSO) were warmed at 37° C. for at least 20 minutes before use. A […] stock was initially made in assay buffer, where the final concentration of DMSO was 0.3%. The stocks were then diluted in 384 well Optiplates (Packard) where the final concentration of the compound was 5 μM.
The kinase domain of human JAK3 was amplified from U937 mRNA using the polymerase chain reaction with the following primers: […]
The JAK3 PCR products were cloned into the pDest20 destination expression vector (Gibco). The JAK3 plasmid was then transformed into competent DH10Bac cells (Gibco), and the recombinant baculovirus was prepared via Sf9 insect cell transfection.
(§2) Baculovirus preparations from each of the JAK family members were infected into one litre of […] (Spodoptera frugiperda) cells (Invitrogen) grown in SF900II serum free medium (Invitrogen) to a cell density of approximately 2×10^6 cells/ml. Cells were infected with virus at a cell culture to virus stock ratio of 20:1. Cells were harvested and lysed 48 hours post infection. The GST-tagged JAK kinase domains were purified by affinity chromatography on a GSH agarose column (Scientifix).
The compounds were then incubated with substrate in the presence of either […] ATP for 60 or 90 minutes. […] (final concentration 111 μM) or substrate-2 substrate with the sequence biotin-[…] [SEQ ID NO: 16] (final concentration 133 μM). Alphascreen phosphotyrosine acceptor beads followed by streptavidin donor beads at a concentration of 1/100 in stop buffer were added to each well under subdued light and incubated for 2-3 hours. The Alphascreen plates were read on a Packard Fusion Alpha instrument

Another experiment deals with human JAK2 (Homo sapiens (Human), UniProt O60674). In words: JAK2 kinase domain Alphascreen enzyme screening. It is filed as biochemical. Conditions: read-out: JAK2_IC50_nM. On the procedure:
as §1
The kinase domain of human JAK2 was amplified from U937 mRNA using the polymerase chain reaction with the following primers: […]
The JAK2 PCR products were cloned into the pDest20 destination vector (Gibco). The JAK2 plasmid was then transformed into competent DH10Bac cells (Gibco), and the recombinant baculovirus was prepared via Sf9 insect cell transfection.
as §2
Alphascreen phosphotyrosine acceptor beads followed by streptavidin donor beads at a concentration of 1/100 in stop buffer were added to each well under subdued light and incubated for 2-3 hours. The Alphascreen plates were read on a Packard Fusion Alpha instrument
A general note: In Alpha technology, singlet oxygen from a donor bead excites a nearby acceptor bead.

For experiment [1], the system named is BaF3 TELJAK cells (BafT_J2). In words: Cellular screening, BaF3 TELJAK2 cells (Alamar Blue). Format: cell-based. The following applies: Mus musculus. On the procedure:
(§3) For screening purposes, compounds were diluted in 96 well plates at a concentration of 20 μM. Plates were warmed at 37° C. for 30 minutes before the assay was performed.
A TEL/Jak2 fusion was generated by digestion of the TELPCR product with BamH I/Sal I restriction enzymes, digestion of the JAK2 PCR product with Sal I/Not I restriction enzymes, followed by ligation and subcloning of the ligation product into the mammalian expression Vector pTRE 2 (Clontech), which was prepared by digestion with BamH I—Not I restriction enzymes, to give the TEL/Jak2 fusion plasmid pTELJAK2.
(§4) The growth factor dependent myelomonocytic cell line BaF3 bearing the pTET-off plasmid (Clontech) was transfected with either pTELJAK2 or pTELJAK3, and the transfected cells were selected for growth-factor independent cell growth. The BaF3 wild-type cells were cultured in DMEM containing 10% FCS, 10% WEHI 3B conditioned medium. The BaF3 TELJAK cells ([…]) were cultured in DMEM 10% Tet-System Approved FBS (without WEHI 3B conditioned medium).
(§5) Cell suspensions were prepared by harvesting cells from culture (the cells used in this test were in late log phase growth with high viability.) Cells were diluted in the appropriate growth medium, as described above, to 1.1× final concentration (from 50,000 cell/mL to 200,000 cell/mL, depending on cell line).
Compounds to be tested were added (10 μL, 10× final concentration) to a flat bottomed 96-well plate. The cellular suspension (90 μL per well) was then added, and the plate incubated for 48-72 hr at 37° C., 5% CO2. Alamar Blue 10 μL per well was added and the plates returned to the incubator for a further 4-6 hours.
(§6) Result are given in table 2 where +++ is <1 μM, ++ is <5 μM and + is <20 μM

For another experiment, the system named is CTLL2. In words: Cellular screening, CTLL2 cells (Alamar Blue). Format: cell-based. Conditions: Mus musculus, CTLL-2; 48-72 hr incubation; read-out: CTLL2_IC50_μM. The procedure:
as §3, §5
(§7) Compounds to be tested were added (10 μL, 10× final concentration) to a flat bottomed 96-well plate. The cellular suspension (90 μL per well) was then added, and the plate incubated for 48-72 hr at 37° C., 5% CO2. Alamar Blue 10 μL per well was added and the plates returned to the incubator for a further 4-6 hours. The plates were then read at 544 nm.
as §6
(Alamar Blue is a resazurin reagent that responds to reducing activity.)

In another experiment the test system is BaF3 wild-type cells. Kind of experiment: Cellular screening, BaF3 wild-type cells (Alamar Blue). Format: cell-based. The following applies: Mus musculus, 48-72 hr incubation, read-out: BAF3wt_IC50_μM. The procedure:
as §3, §4, §5, §7, §6

For the next experiment, the system named is Ba/F3 TelJAK2 cells. Kind of experiment: Subcutaneous tumour model of Ba/F3 TelJAK2 cells in nude mice. It is filed as in vivo, mouse. The following applies: 5 mg/kg i.v. 3× weekly, after 14 days of dosing, t-test p<0.05. The procedure: Dosing commenced 11 days post-tumour cell inoculation, when tumours were palpable (mean tumour volume of 6 mm^3). Tumour dimensions were measured twice weekly.

Setting [2] is: BaF3, 48-72 hr incubation, read-out: BafT_J2_IC50_μM.

Sequence of human JAK2 (O60674 849-1124): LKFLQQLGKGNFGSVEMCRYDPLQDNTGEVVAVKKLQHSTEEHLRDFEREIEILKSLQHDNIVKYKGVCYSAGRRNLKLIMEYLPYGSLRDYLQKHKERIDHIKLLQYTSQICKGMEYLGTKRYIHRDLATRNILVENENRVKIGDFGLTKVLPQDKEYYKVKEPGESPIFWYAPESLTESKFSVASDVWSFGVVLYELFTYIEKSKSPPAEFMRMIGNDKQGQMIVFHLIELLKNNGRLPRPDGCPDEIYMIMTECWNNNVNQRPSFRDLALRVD
Sequence of human JAK3 (P52333 822-1111): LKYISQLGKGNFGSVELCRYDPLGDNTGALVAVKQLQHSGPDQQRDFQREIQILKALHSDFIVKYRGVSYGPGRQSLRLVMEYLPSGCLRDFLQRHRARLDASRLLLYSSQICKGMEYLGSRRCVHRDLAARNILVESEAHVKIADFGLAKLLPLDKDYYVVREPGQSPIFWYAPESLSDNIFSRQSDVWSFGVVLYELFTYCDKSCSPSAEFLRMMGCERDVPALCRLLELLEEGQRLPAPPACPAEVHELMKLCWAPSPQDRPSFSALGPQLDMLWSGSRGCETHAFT

For `CCN1CCC(Oc2ccc(Nc3nccc(-c4ccc(C(=O)NCC#N)cc4)n3)cc2)CC1` [Compound 80, N-(cyanomethyl)-4-(2-(4-(1-ethylpiperidin-4-yloxy)phenylamino)pyrimidin-4-yl)benzamide], the IC50 was < 500 nM at human JAK3; < 100 nM at human JAK2; < 1000 nM in experiment [1] (setting [2]); < 5000 nM in the experiment with CTLL2; < 5000 nM in the experiment with BaF3 wild-type cells.

On to `CS(=O)(=O)N(CC#N)c1ccc(-c2ccnc(Nc3ccc(N4CCOCC4)c(F)c3)n2)cc1` [Compound 81, N-(cyanomethyl)-N-(4-(2-(3-fluoro-4-morpholinophenyl-amino)pyrimidin-4-yl)phenyl)methane-sulfonamide], for which the IC50 is > 1000 nM at human JAK3; < 100 nM at human JAK2; < 1000 nM in experiment [1] (setting [2]); < 5000 nM in the experiment on CTLL2; < 5000 nM with BaF3 wild-type cells.

Consider `CS(=O)(=O)N(CC#N)c1ccc(-c2ccnc(Nc3ccc(N4CCOCC4)c(C#N)c3)n2)cc1` [Compound 82, N-(4-(2-(3-cyano-4-morpholinophenyl-amino)pyrimidin-4-yl)phenyl)-N-(cyanomethyl) methanesulfonamide], for which the IC50 at human JAK3 is > 1000 nM; at human JAK2, < 100 nM; in experiment [1] (setting [2]) it was < 1000 nM; with CTLL2, < 5000 nM; in the experiment on BaF3 wild-type cells, < 5000 nM.

Consider `N#CCNC(=O)c1ccc(-c2ccnc(Nc3ccc(N4CCS(=O)(=O)CC4)cc3)n2)cc1` [Compound 89, N-(cyanomethyl)-4-(2-{[4-(1,1-dioxo-1λ^6,4-thiomorpholin-4-yl)phenyl]amino}pyrimidin-4-yl)benzamide], for which the IC50 on human JAK3 is < 500 nM; on human JAK2, < 100 nM; in experiment [1] (setting [2]) it was < 5000 nM; in the experiment with CTLL2, < 5000 nM; in the experiment with BaF3 wild-type cells, < 5000 nM.

As to `N#CCNC(=O)c1ccc(-c2nc(Nc3ccc(N4CCOCC4)cc3)ncc2F)cc1` [Compound 93, N-(cyanomethyl)-4-(5-fluoro-2-(4-morpholinophenyl-amino)pyrimidin-4-yl)benzamide], the IC50 is < 500 nM on human JAK3; < 100 nM on human JAK2; < 1000 nM in experiment [1] (BaF3, read-out: BafT_J2_IC50_μM); < 1000 nM with CTLL2; < 1000 nM in the experiment on BaF3 wild-type cells.

For the molecule `CC(=O)O[C@H]1C(=O)[C@@]2(C)[C@H]([C@H](OC(=O)c3ccccc3)[C@]3(O)C[C@H](OC(=O)[C@H](O)[C@@H](NC(=O)c4ccccc4)c4ccccc4)C(C)=C1C3(C)C)[C@]1(OC(C)=O)CO[C@@H]1C[C@@H]2O` [Taxol, reference compound], the “tumour volumes compared to Vehicle Control Treated Group” value with Ba/F3 TelJAK2 cells is recorded as “smaller tumour volumes”.
